Source: patent publication US12043602B2, “Fendiline derivatives” (The Board of Regents of the University of Texas System, priority 2019, dated 2024)
Where “and” joins values, the source holds several entries; their conditions need not be identical. Equal values may be shown once. Read-outs that look alike come from different tables or passages of the source.

Key:
[1] = system: MDCK cells co-expressing GFP-K-RASG12V and mCherry-CAAX; assay: Cytotoxicity in mislocalization screen (death of all cells in well); settings: drug caused death of all cells in well at 30 μM
mGFP-K-RASG12V = mGFP-K-RASG12V (Homo sapiens (Human), UniProt P01116, G12V); assay: K-Ras mislocalization assay (confocal microscopy, Manders coefficient); type: cell-based; design: key to Emax: Manders coefficient: fraction of mCherry-CAAX co-localizing with GFP-K-Ras; settings: for IC50 / Emax / EC50: MDCK cells; for IC50: 48 h treatment, read-out: IC50 (μM), KRASG12V mislocalization; for Emax: maximal effect, Manders coefficient; for Emax / EC50: 48 h; for EC50: batch 4 compounds, title calls it IC50, read-out: EC50
Outline: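 Readout is the Manders coefficient: share of mCherry-CAAX overlapping mGFP-K-RASG12V in confocal images, proportional to K-Ras mislocalization. Stable MDCK co-expressing lines were exposed 48 h to various drug concentrations or 0.1% DMSO vehicle, then paraformaldehyde-fixed.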

IC50 (mGFP-K-RASG12V) [µM] | Emax (mGFP-K-RASG12V) | SMILES | Cytotoxic at 30 μM [1] | other results
4.19 | 0.886 | C#CCN1CCN(CCN(CC=C(c2ccccc2)c2ccccc2)[C@H](C)c2ccc(OC)cc2)CC1 [NY356, (R)-N-(1-(4-methoxyphenyl)ethyl)-3,3-diphenyl-N-(2-(4-(prop-2-ynyl)piperazin-1-yl)ethyl)prop-2-en-1-amine] | No | 
0.25 | 0.587 | COc1ccc([C@@H](C)N(CC=C(c2ccccc2)c2ccccc2)C(C)=O)cc1 [NY0222, (R)-N-(3,3-diphenylallyl)-N-(1-(4-methoxyphenyl)ethyl)acetamide] | Yes | 
12.2 | 0.79 | C(CN1CCCc2ccccc21)=C(c1ccccc1)c1ccccc1 [NY0237, 1-(3,3-diphenylallyl)-1,2,3,4-tetrahydroquinoline] | No | 
8.45 | 0.785 | COc1ccc([C@@H](C)N(CC=C(c2ccccc2)c2ccccc2)S(C)(=O)=O)cc1 [NY0223, (R)-N-(3,3-diphenylallyl)-N-(1-(4-methoxyphenyl)ethyl)methanesulfonamide] | No | 
 | 0.810 | COc1ccc([C@@H](C)N(CC=C(c2ccccc2)c2ccccc2)CCCCN2CCN(C)CC2)cc1 [NY0449, (R)-N-(3,3-diphenylallyl)-N-(1-(4-methoxyphenyl)ethyl)-4-(4-methylpiperazin-1-yl)butan-1-amine] | Yes | KRAS PM localization inhibition activity (in words) (mGFP-K-RASG12V): significantly decreased potency; Emax (mGFP-K-RASG12V; listed as 25): 0.81 ± 0.03
 | 0.697 | C[C@@H](NCC(=O)N1c2ccccc2CCc2ccccc21)c1ccccc1 [NY0584, (R)-1-(10,11-dihydro-5H-dibenzo[b,f]azepin-5-yl)-2-((1-phenylethyl)amino)ethan-1-one] | No | EC50 (mGFP-K-RASG12V): 6.94 µM
1.02 | 0.938 | COc1cc(C(=CCN(CCN2CCCC2)[C@H](C)c2ccc(F)cc2)c2cc(OC)c(OC)c(OC)c2)cc(OC)c1OC [PW358, (R)-N-(1-(4-Fluorophenyl)ethyl)-N-(2-(pyrrolidin-1-yl)ethyl)-3,3-bis(3,4,5-trimethoxyphenyl)prop-2-en-1-amine] | Yes | 
1.46 | 0.778 | C(CN(CC=C(c1ccccc1)c1ccccc1)C1(c2ccccc2)CC1)=C(c1ccccc1)c1ccccc1 [NY040401, N,N-bis(3,3-diphenylallyl)-1-phenylcyclopropanamine] | No | 
2.77 | 0.794 | C[C@H](c1ccc(F)cc1)N(CC=C(c1ccccc1)c1ccccc1)CCn1cc(CO)nn1 [PW304, (R)-(1-(2-((3,3-diphenylallyl)(1-(4-fluorophenyl)ethyl)amino)ethyl)-1H-1,2,3-triazol-4-yl)methanol] | No | 
16.9 | 0.608 | C[C@@H](CNCC=C(c1ccccc1)c1ccccc1)c1ccccc1 [NY022702, (R)-3,3-diphenyl-N-(2-phenylpropyl)prop-2-en-1-amine] | No | 
3.95 | 0.893 | C(CN1CCC(c2ccccc2)CC1)=C(c1ccccc1)c1ccccc1 [NY306, 1-(3,3-diphenylallyl)-4-phenylpiperidine] | No | 
 | 0.494 | C[C@@H](CN(CC=C(c1ccccc1)c1ccccc1)CC=C(c1ccccc1)c1ccccc1)c1ccccc1 [NY022701, (R)-N-(3,3-diphenylallyl)-3,3-diphenyl-N-(2-phenylpropyl)prop-2-en-1-amine] | No | 
2.27 | 0.685 | C[C@H](c1ccc(F)cc1)N(CC=C(c1ccccc1)c1ccccc1)CCn1ccc2cccnc21 [PW297, (R)-N-(2-(1H-pyrrolo[2,3-b]pyridin-1-yl)ethyl)-N-(1-(4-fluorophenyl)ethyl)-3,3-diphenylprop-2-en-1-amine] | No | 
 | 0.424 | COC(=O)[C@@H](c1ccccc1)N(CC=C(c1ccccc1)c1ccccc1)CC=C(c1ccccc1)c1ccccc1 [NY055101, methyl (R)-2-(bis(3,3-diphenylallyl)amino)-2-phenylacetate] | Yes | EC50 (mGFP-K-RASG12V): 8.91 µM
 | 0.327 | COC(=O)[C@@H](c1ccccc1)N(CC=C(c1ccccc1)c1ccccc1)C(=O)NC(C)(C)C [NY0554, methyl (R)-2-(3-(tert-butyl)-1-(3,3-diphenylallyl)ureido)-2-phenylacetate] | Yes (even | EC50 (mGFP-K-RASG12V): 1.2 µM
3.4 | 0.608 | O=C(Nc1ccc(F)cc1)N(CC=C(c1ccccc1)c1ccccc1)CCN1CCCC1 [PW279, 1-(3,3-diphenylallyl)-3-(4-fluorophenyl)-1-(2-(pyrrolidin-1-yl)ethyl)urea] | Yes | 
0.16 | 0.637 | C(CN[C@@H]1C[C@H]1c1ccccc1)=C(c1ccccc1)c1ccccc1 [NY022602, (1R,2S)-N-(3,3-diphenylallyl)-2-phenylcyclopropanamine] | No | 
 | 0.878 | COc1ccc([C@@H](C)N(CC=C(c2ccccc2)c2ccccc2)CCCN2CCCC2)cc1 [NY0502, (R)-N-(1-(4-methoxyphenyl)ethyl)-3,3-diphenyl-N-(3-(pyrrolidin-1-yl)propyl)prop-2-en-1-amine] | Yes | EC50 (mGFP-K-RASG12V): 1.78 µM
21.9 | 0.703 | C#CCN(CC=C(c1ccccc1)c1ccccc1)[C@H](C)c1ccc(OC)cc1 [NY0234, (R)-N-(1-(4-methoxyphenyl)ethyl)-3,3-diphenyl-N-(prop-2-yn-1-yl)prop-2-en-1-amine] | No | 
2.19 | 0.412 | COc1ccc([C@@H](C)N(CC=C(c2ccccc2)c2ccccc2)C(=O)CN2CCC(O)CC2)cc1 [PW126, (R)-N-(3,3-diphenylallyl)-2-(4-hydroxypiperidin-1-yl)-N-(1-(4-methoxyphenyl)ethyl)acetamide] | Yes | 
 | 0.628 | COC(=O)c1cn(CCN(CC=C(c2ccccc2)c2ccccc2)[C@H](C)c2ccc(F)cc2)nn1 [PW307, methyl (R)-1-(2-((3,3-diphenylallyl)(1-(4-fluorophenyl)ethyl)amino)ethyl)-1H-1,2,3-triazole-4-carboxylate] | No | 
2.3 | 0.910 | Fc1ccc2c(c1)CCCN2CC=C(c1ccccc1)c1ccccc1 [NY293, 1-(3,3-diphenylallyl)-6-fluoro-1,2,3,4-tetrahydroquinoline] | No | 
0.553 | 0.452 | COc1ccc([C@@H](C)N(CC=C(c2ccccc2)c2ccccc2)C(=O)CN2CCCC2)cc1 [PW124, (R)-N-(3,3-diphenylallyl)-N-(1-(4-methoxyphenyl)ethyl)-2-(pyrrolidin-1-yl)acetamide] | Yes | 
 | 0.75 | CCCN1CCN(CCN(CC=C(c2ccccc2)c2ccccc2)[C@H](C)c2ccc(OC)cc2)CC1 [NY0594, (R)-N-(2-(4-propylpiperazin-1-yl)ethyl)-N-(1-(4-methoxyphenyl)ethyl)-3,3-diphenylprop-2-en-1-amine] | Yes | EC50 (mGFP-K-RASG12V): 3.26 µM

SMILES | IC50 (mGFP-K-RASG12V) [µM] | Emax (mGFP-K-RASG12V) | Cytotoxic at 30 μM [1] | other results
COc1ccc(/C(=C\CN(CCN2CCCC2)[C@H](C)c2ccc(F)cc2)c2ccc(F)cc2)cc1 [PW454, (R,E)-3-(4-fluorophenyl)-N-(1-(4-fluorophenyl)ethyl)-3-(4-methoxyphenyl)-N-(2-(pyrrolidin-1-yl)ethyl)prop-2-en-1-amine] | 0.319 | 0.771 | Yes at 10 uM | 
COc1ccc([C@H](C)N(CC=C(c2ccccc2)c2ccccc2)CCN2CC2)cc1 [NY0436] | 14 | 0.716 | No | 
COc1ccc([C@@H](C)N(CC=C(c2ccccc2)c2ccccc2)CCN2CCOCC2)cc1 [NY316, (R)-N-(1-(4-methoxyphenyl)ethyl)-N-(2-morpholinoethyl)-3,3-diphenylprop-2-en-1-amine] | 4.4 | 0.86 ± 0.02 | No | 
COc1ccc([C@H](C)N(CC=C(c2ccccc2)c2ccccc2)CCN2CCN(C)CC2)cc1 [NY0454, (S)-N-(1-(4-methoxyphenyl)ethyl)-N-(2-(4-methylpiperazin-1-yl)ethyl)-3,3-diphenylprop-2-en-1-amine] | 1.24 | 0.827 | Yes | IC50 (mGFP-K-RASG12V; listed as 15a): 1.2 µM; Emax (mGFP-K-RASG12V; listed as 15a): 0.83 and 0.83 ± 0.02; fold potency loss / decreased potency (mGFP-K-RASG12V; versus 12f (NY0244)): 12 fold
COc1ccc([C@@H](C)N(CC=C(c2ccccc2)c2ccccc2)CC(=O)N2CCN(C)CC2)cc1 [NY0232, (R)-2-((3,3-diphenylallyl)(1-(4-methoxyphenyl)ethyl)amino)-1-(4-methylpiperazin-1-yl)ethanone] | 1.1 | 0.73 ± 0.02 | No | 
COc1ccc(C(=CCN(CCN2CCCC2)[C@H](C)c2ccc(F)cc2)c2ccc(OC)cc2)cc1 [PW356, (R)-N-(1-(4-Fluorophenyl)ethyl)-3,3-bis(4-methoxyphenyl)-N-(2-(pyrrolidin-1-yl)ethyl)prop-2-en-1-amine] | 2.44 | 0.641 | Yes at 10 uM | 
